{"source": "patent US11266768B2", "about": "“Stretch release drug delivery materials” (TRUSTEES OF BOSTON UNIVERSITY, priority 2013, dated 2022)", "key": {"OE33, oesophageal cancer": {"test_system": "OE33, oesophageal cancer", "assay": "OE33 cell viability with SN-38 release aliquots (MTS Assay)", "assay_type": "cell-based", "conditions": "release aliquots in RPMI with 10% fetal bovine serum incubated 96 hours", "text": "By altering the amount of strain, the rate of SN-38 release can be controlled in order to provide a range of concentrations at fixed time points. […] The concentration of SN-38 can be either lower or higher than the IC50 value such that a similar curve can be created using force and/or strain, rather than, or in addition to, concentration. […] Because SN-38 is a toxic chemotherapeutic drug, the amount of SN-38 released correlates with cell viability. […] (FIG. 44)"}, "[1]": {"assay": "Strain-modulated release of SN-38 from mechanoresponsive drug delivery device (fluorimetry)", "assay_type": "physicochemical", "conditions": "for release of SN-38 from device: PBS or RPMI with 10% v/v fetal bovine serum", "procedure": "SN-38 from release media was quantified by mixing one (1) part release medium (containing drug) in three (3) parts 20 mM borate buffer (pH=9), which converts SN-38 to the carboxylate form. Fluorescence was detected by fluorimetry at an excitation of 380 nm and emission of 550 nm, as previously described (Yohe, J Controlled Release 2012, 162). (FIG. 42)\nA drug delivery device with incorporated SN-38 was fabricated in accordance with Example 2, above. The ends of the material were placed between two pieces of foam tape and further secured by applying glue to the ends in contact with the foam tape. The ends were then placed between the grips of a tensile tester machine (Instron 5848 Microtester) and the sample length between the grips was recorded. A water bath was placed under the sample arms, and the drug delivery device was submerged beneath 300 mL of phosphate-buffered saline (PBS) or cell media, RPMI with 10% v/v fetal bovine serum. A magnetic stir bar was also added to the bath to ensure thorough mixing during the study. The Instron software was then programmed to extend the sample arms at a constant rate of 2 mm/s until a travel distance equivalent to thirty percent of the initial sample length was reached (corresponding to 30% strain), or equivalent to the entire initial sample length was reached (corresponding to 100% strain). Once the device was stretched, aliquots of release medium were sampled at predetermined time points. The percentage of SN-38 released into the surrounding aqueous environment was calculated using fluorimetry, as described in Example 31. Devices were also placed on the tensile tester, but in this instance they were not stretched (0% strain), to serve as control experiments. Release of the chemotherapy agent from devices subjected to 100% strain and more moderate from devices subjected to 30% strain. […] (FIG. 43)"}, "OE33 cells": {"test_system": "OE33 cells", "assay": "OE33 cell viability with cisplatin release aliquots (MTS Assay)", "assay_type": "cell-based", "conditions": "release aliquots incubated 72 hours with OE33 cells", "procedure": "Aliquots from release (FIG. 39) were incubated for 72 hours with OE33 cells, an oesophageal cell line. Cell viability from incubation of release aliquots over two hours were determined by MTS Assay, left. Cell viability at the 30-minute release at various strain magnitude are shown, right (p<0.05 for 30%, 100% when compared to 0%).\nCisplatin is used in the treatment of esophageal cancer. […] They used an esophageal cell line, OE33 (Sigma), to show the efficacy of cisplatin released from the tension-modulated drug delivery device, and that a dose-response curve can be generated using force and/or strain as the means to alter the dose. […] By altering the amount of force, the rate of cisplatin release can be controlled in order to provide a range of concentrations at fixed time points. The concentration of cisplatin can be either lower or higher than the IC50 value such that a similar curve may be created using force and/or strain on the x-axis, rather than, or in addition to, concentration.\nCisplatin can be loaded into these systems as described in Example 14. Cisplatin can be used to achieve dose-dependent tumor cell death, and also strain-dependent cell death. A strain-dependent release of cisplatin, a small hydrophilic drug molecule, can be seen in FIG. 39. Because cisplatin is a cytotoxic chemotherapeutic drug, the amount of cisplatin released correlates with cell viability (FIG. 40)."}, "OE33": {"test_system": "OE33", "conditions": "72 hours of incubation; read-out: IC50 of cisplatin with OE33; cited from earlier work"}, "[2]": {"assay": "Tension-triggered release of cisplatin from mechanoresponsive drug delivery device (atomic absorption)", "assay_type": "physicochemical", "conditions": "for release of cisplatin from device: PBS", "text": "The amount of cisplatin released from the drug delivery system into the surrounding aqueous environment was quantified through flameless atomic absorption spectroscopy (also known as graphite furnace atomic absorption or electrothermal absorption (Varian AA240Z Atomic Absorption)). The platinum atom has a strong absorbance band at 265.9 nm, and was used for detecting the presence of platinum (the major component of the anticancer agent cisplatin) in the release medium. A standard curve was first created, and aliquots (sampled at different timepoints) from the release medium with unknown cisplatin concentrations were determined from this standard curve. The concentration values were then converted to amount (mass) of cisplatin released by multiplying the concentration by the total volume of solution into which the agent released. The amount of cisplatin actually released was then divided by the amount of cisplatin initially loaded into the device, to get a percentage of cisplatin released as a function of time.\nA drug delivery device with incorporated cisplatin was fabricated in accordance with Example 1 above. The ends of the material were placed between two pieces of foam tape and further secured by applying glue to the ends in contact with the foam tape. The ends were then placed between the grips of a tensile tester machine (Instron 5848 Microtester) and the sample length between the grips was recorded. A water bath was placed under the sample arms, and the drug delivery device was submerged beneath 300 mL of phosphate-buffered saline (PBS). A magnetic stir bar was also added to the bath to ensure thorough mixing during the study. The Instron software was then programmed to extend the sample arms at a constant rate of 2 mm/s until a travel distance equivalent to the initial sample length was reached (corresponding to 100% strain). […] The percentage of cisplatin released into the surrounding aqueous environment was calculated using flameless atomic absorption spectroscopy, as described in Example 16. […]"}, "[3]": {"assay": "Tension-triggered release of FITC-BSA from mechanoresponsive drug delivery device (fluorescence)", "assay_type": "physicochemical", "conditions": "PBS with 10% serum", "text": "The amount of fluorescein isothiocyanate-labeled bovine serum albumin (FITC-BSA) released from the drug delivery system into the surrounding aqueous environment was quantified through fluorescence spectrophotometry. The fluorescein isothiocyanate is a fluorophore that is maximally excited around 495 nm and maximally emits at around 520 nm. The fluorescence intensity emitted at 520 nm was used to construct a standard curve of fluorescence versus FITC-BSA concentration. Unknown FITC-BSA concentrations in the release medium were calculated from this standard curve. The concentration values were then converted to amount (mass) of FITC-BSA released by multiplying by the concentration values by the total volume of solution into which the protein released. The amount of FITC-BSA actually released was then divided by the amount of FITC-BSA initially loaded into the device, to get a percentage of protein released as a function of time. (FIGS. 19-21)\nA drug delivery device with incorporated fluorescein isothiocyanate-labeled bovine serum albumin (FITC-BSA) was fabricated in accordance with Example 1 above. The ends of the material were placed between two pieces of foam tape and further secured by applying glue to the ends in contact with the foam tape. The ends were then placed between the grips of a tensile tester machine (Instron 5848 Microtester) and the sample length between the grips was recorded. A water bath was placed under the sample arms, and the drug delivery device was submerged beneath 300 mL of phosphate-buffered saline (PBS) with 10% serum (fetal bovine serum). A magnetic stir bar was also added to the bath to ensure thorough mixing during the study. The Instron software was then programmed to extend the sample arms at a constant rate of 2 mm/s until a travel distance equivalent to the initial sample length was reached (corresponding to 100% strain). Once the device was stretched, aliquots of release medium were sampled at predetermined time points. The percentage of protein released into the surrounding aqueous environment was calculated using fluorescence spectrophotometry, as described in Example 13 above. Devices were also placed on the tensile tester, but in this instance they were not stretched (0% strain), to serve as control experiments. Release of the fluorescent protein from devices subjected to strain was rapid, and was achieved only under the application of strain. […] (FIG. 24)\nA drug delivery device with incorporated fluorescein isothiocyanate-labeled bovine serum albumin (FITC-BSA) was fabricated in accordance with Example 1 above. The coating was electrosprayed using a tip-to-collector distance of 15 cm. The ends of the material were placed between two pieces of foam tape and further secured by applying glue to the ends in contact with the foam tape. The ends were then placed between the grips of a tensile tester machine (Instron 5848 Microtester) and the sample length between the grips was recorded. A water bath was placed under the sample arms, and the drug delivery device was submerged beneath 300 mL of phosphate-buffered saline (PBS) with 10% serum (fetal bovine serum). A magnetic stir bar was also added to the bath to ensure thorough mixing during the study. The Instron software was then programmed to extend the sample arms at a constant rate of 2 mm/s until a travel distance equivalent to half of the initial sample length was reached (corresponding to 50% strain), or equivalent to the entire initial sample length was reached (corresponding to 100% strain). Once the device was stretched, aliquots of release medium were sampled at predetermined time points. The percentage of protein released into the surrounding aqueous environment was calculated using fluorescence spectrophotometry, as described in Example 13 above. Devices were also placed on the tensile tester, but in this instance they were not stretched (0% strain) to serve as a control experiment. […]"}, "[4]": {"test_system": "type I collagen in fibroblasts", "conditions": "cited from earlier work"}}, "note": "“Also recorded” adds a separate entry of the source.", "data": [{"compound": "CCc1c2c(nc3ccc(O)cc13)-c1cc3c(c(=O)n1C2)COC(=O)[C@]3(O)CC", "note": "[SN-38, 7-ethyl-10-hydroxycamptothecin]", "values": [{"measurement": "cell viability with released SN-38", "setting": "OE33, oesophageal cancer", "result": "deliver an efficacious amount of SN-38 to change the cell viability; also recorded: significant decreases in viability with increasing strain"}, {"measurement": "dependence of SN-38 release on strain", "setting": "[1]", "result": "strain-dependent"}, {"measurement": "release of SN-38 from device", "setting": "[1]; 0% strain", "result": "did not release appreciable amounts of drug"}, {"measurement": "release of SN-38 from device", "setting": "[1]; 30% strain", "result": "more moderate"}]}, {"compound": "N.N.[Cl][Pt][Cl]", "note": "[cisplatin, Cis-diamminedichloroplatinum(II)]", "values": [{"measurement": "cell viability with released cisplatin", "setting": "OE33 cells", "result": "deliver an efficacious amount of cisplatin to change the cell viability"}, {"measurement": "IC50", "setting": "OE33", "result": 2170, "unit": "nM"}, {"measurement": "release of cisplatin from device", "setting": "[2]; 100% strain", "result": "rapid release"}, {"measurement": "dependence of cisplatin release on strain", "setting": "[2]; cell media solution (RPMI) with fetal bovine serum (10% v/v)", "result": "strain-dependent; also recorded: tension-dependent"}, {"measurement": "release of cisplatin from device", "setting": "[2]; no applied tension (0% strain)", "result": "did not release appreciable amounts of drug; also recorded: minimal release"}]}, {"compound": "FITC-BSA: Fluorescein isothiocyanate-labeled bovine serum albumin, model protein", "values": [{"measurement": "release of FITC-BSA from device", "setting": "[3]; 0% strain, dry coating, tip-to-collector distance 15 cm", "result": "did not release appreciable amounts of protein; also recorded: minimal release"}, {"measurement": "release of FITC-BSA from device", "setting": "[3]; 50% strain, dry coating, tip-to-collector distance 15 cm", "result": "more moderate; also recorded: modest release profile"}, {"measurement": "release of FITC-BSA from device", "setting": "[3]; 100% strain", "result": "rapid release"}, {"measurement": "release of FITC-BSA from device", "setting": "[3]; 100% strain, listed as protein", "result": "rapid drug release"}, {"measurement": "release of FITC-BSA from device", "setting": "[3]; 100% strain, dry coating, tip-to-collector distance 15 cm", "result": "most rapid; also recorded: rapid release"}, {"measurement": "release of FITC-BSA from device", "setting": "[3]; no applied tension (0% strain)", "result": "did not release appreciable amounts of protein; also recorded: minimal release"}, {"measurement": "release of FITC-BSA from device", "setting": "[3]; no applied tension (0% strain), listed as protein", "result": "did not release appreciable amounts of drug"}]}, {"compound": "TNF-α", "values": [{"measurement": "effect on synthesis of type I collagen", "setting": "[4]", "result": "inhibit synthesis of type I collagen"}]}]}
